Experimental data: US20080200556A1, “Amine Compounds And Inhibiting Neurotrasmitter Reuptake” (MAYO FOUNDATION FOR MEDICAL EDUCATION AND RESEARCH, priority 2004, published 2008)

Assays:
[1] = target: human dopamine transporter (hDAT) (Homo sapiens, UniProt Q01959); assay: biochemical
Protocol: (§1) The cells were incubated in 10% CO2, 90% air at 37° C. and 100% humidity. The hNET cell cultures contained 250 μg/mL geneticin sulfate. The cells were grown to 70-80% confluency prior to harvesting.
(§2) Cell membranes containing hSERT, hNET, or hDAT were prepared from the cell lines to assay ligand binding for each of the transporters. […] The washed cells were incubated for 5 minutes at 37° C. in 10 mL solution 1 containing 100 mM ethylene glycol-bis N,N,N′,N′-tetraacetic acid (EGTA). The cells were then scraped from the flask surface with a rubber spatula, placed into a centrifuge tube, and collected by centrifugation at 1000×g for 5 minutes at 4° C. The resulting supernatant was discarded, and the cell pellet was resuspended in 0.5 to 1.0 mL of the appropriate binding buffer (described below). The resuspended cell pellet was homogenized using a Polytron for 10 seconds at setting 6. The resulting homogenate was centrifuged at about 36,000×g for 10 minutes at 4° C. The supernatant was discarded, and the pellet was resuspended in the same volume of the appropriate binding buffer and centrifuged again. […]
To assess binding to the cloned HDAT, cells expressing HDAT were homogenized in 50 mM Tris-HCl with 120 mM NaCl (pH 7.4). […] Radioactivity was measured with a Beckman liquid scintillation counter (LS 5000TD). […]

[2] = target: T1, human serotonin transporter (hSERT) (Homo sapiens, UniProt P31645)
Protocol: as §1, §2
(§3) Radioligand binding assays for the indicated transporters were performed as follows. […] Radioactivity was measured with a Beckman liquid scintillation counter (LS 5000TD). […]

Male C57B1/6J mice = assay: Tail suspension test in mice; assay type: in vivo, mouse; conditions: PRC025 10 mg/kg; for Time immobile (Counts/6 min) / Time mobile (Counts/6 min): i.p. 30 minutes before testing, imipramine 15 mg/kg (table), mean ±SEM, *P < 0.05 vs. saline
Excerpt: When mice are suspended by their tail, there is an initial period of agitation, followed by immobility. This test identifies antidepressant compounds, which decrease the duration of immobility.
Mice were then individually suspended by their tails 35 cm above the tabletop using an adhesive tape placed 1 cm from the tip of the tail. Behavior was scored every 5 seconds throughout the 6-minute test as either mobile or immobile. Mice were considered immobile only when hanging passively and completely motionless. Scores for each behavior were expressed as total counts per […]. Statistical analysis was performed using ANOVA followed by the Tukey test for post-hoc comparisons.

[3] = target: T1, human serotonin transporter (hSERT); assay: biochemical
Protocol: as §1, §2, §3

Male Sprague-Dawley rats = assay: Forced swim test in rats; assay type: in vivo, rat; conditions: i.p., imipramine 15 mg/kg, PRC025 10 mg/kg; for Time immobile (Counts/5 min) / Time swimming (Counts/5 min): mean ±SEM, *P < 0.05 vs. saline
Protocol: When rats are placed in a cylinder of water from which they cannot escape, they will remain immobile in the water for the majority of the test.
Water was changed between trials, and the procedure involved a pretest and a 5-minute test separated by 24 hours. During the pretest, rats (adapted to the experimental room for no less than 1 hour) were placed in the cylinder for 15 minutes. Following this initial exposure, the rats were dried with towels and transferred to a “drying cage” situated under a warming lamp. […] The following day, rats were transferred to the experimental room and acclimated for at least 1 hour.
The rat was considered immobile when floating motionless or making only those movements necessary to keep its head above the surface of the water. Scores for each behavior (swimming or immobility) were expressed as total counts per […]. Statistical analysis was performed using ANOVA followed by the Tukey test for post-hoc comparisons.

T1 sequence (P31645 whole entry): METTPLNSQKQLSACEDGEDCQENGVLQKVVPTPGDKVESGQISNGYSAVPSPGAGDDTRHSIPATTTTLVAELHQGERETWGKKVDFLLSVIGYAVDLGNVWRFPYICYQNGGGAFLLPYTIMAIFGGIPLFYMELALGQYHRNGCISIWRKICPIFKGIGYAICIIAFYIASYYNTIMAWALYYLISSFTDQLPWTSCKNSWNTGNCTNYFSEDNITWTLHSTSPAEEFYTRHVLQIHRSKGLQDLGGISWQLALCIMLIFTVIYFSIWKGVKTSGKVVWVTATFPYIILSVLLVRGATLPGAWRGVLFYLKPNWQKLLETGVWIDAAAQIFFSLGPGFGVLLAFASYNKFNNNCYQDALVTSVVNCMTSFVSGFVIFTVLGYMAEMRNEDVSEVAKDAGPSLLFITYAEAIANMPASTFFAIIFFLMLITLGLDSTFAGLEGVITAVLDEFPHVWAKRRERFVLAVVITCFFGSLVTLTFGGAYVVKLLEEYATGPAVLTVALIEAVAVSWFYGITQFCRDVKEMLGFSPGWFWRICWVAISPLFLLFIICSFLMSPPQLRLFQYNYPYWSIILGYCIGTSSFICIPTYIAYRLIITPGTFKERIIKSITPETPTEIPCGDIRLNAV

Work on `CNCC(c1ccc2ccccc2c1)C(O)c1ccccc1` (racemic) [Compound A, (2RS,3RS)-N-methyl-3-hydroxy-2-(2′-naphthyl)-3-phenylpropylamine] yielded a Kd [1] of 0.134 µM.

`CN(C)CC(c1ccc2ccccc2c1)C(O)C1CCCCC1` (racemic) [PRC025, (2RS,3SR)-N,N-dimethyl-3-cyclohexyl-3-hydroxy-2-(2′-naphthyl)propylamine] was tested, and the “binding to hSERT (in words)” value [2] was “strong binding”, the “Time immobile (Counts/6 min)” value (Male C57B1/6J mice) was 12 ± 3* Counts/6 min and the “Time mobile (Counts/6 min)” value (Male C57B1/6J mice) was 60 ± 3* Counts/6 min. The Kd [3] was 0.0041 µM, the Kd [1] was 0.054 µM and the “Time immobile (Counts/5 min)” value (Male Sprague-Dawley rats) was 28 ± 3* Counts/5 min. For the same compound, the “Time swimming (Counts/5 min)” value (Male Sprague-Dawley rats) was 30 ± 3* Counts/5 min.

With `CN(C)CCCN1c2ccccc2CCc2ccccc21` [Imipramine, imipramine] the “Time immobile (Counts/6 min)” value (Male C57B1/6J mice) was 21 ± 4* Counts/6 min, the “Time mobile (Counts/6 min)” value (Male C57B1/6J mice) was 51 ± 4* Counts/6 min and the “mobile behavior versus saline (in words)” value (Male C57B1/6J mice; i.p., imipramine) was “statistically more mobile behavior than mice treated with saline”. The “swimming behavior versus saline (in words)” value (Male Sprague-Dawley rats) was “statistically more swimming behavior than rats treated with saline”, the “Time immobile (Counts/5 min)” value (Male Sprague-Dawley rats) was 23 ± 3* Counts/5 min and the “Time swimming (Counts/5 min)” value (Male Sprague-Dawley rats) was 37 ± 3* Counts/5 min.
